Reference: PubChem BioAssay (NCI)
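In this assay, cells in 96-well plates receive the compound at five concentrations for 48 hours. Endpoints are linearly interpolated between the surrounding concentrations. At the GI50, growth is halved. At the TGI there is no net growth.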

Tests used:
Experiment in all cases: NCI-60 cell line screen, 48 h
HL-60(TB) leukemia = test system: HL-60(TB) leukemia
HOP-92 NSCLC = test system: HOP-92 NSCLC
NCI-H226 lung = test system: NCI-H226 lung
NCI-H522 lung = test system: NCI-H522 lung
OVCAR-4 ovarian = test system: OVCAR-4 ovarian
OVCAR-8 ovarian = test system: OVCAR-8 ovarian
RPMI-8226 leukemia = test system: RPMI-8226 leukemia
SNB-19 CNS = test system: SNB-19 CNS
SW-620 colon = test system: SW-620 colon
UACC-62 melanoma = test system: UACC-62 melanoma

SMILES | TGI (HL-60(TB) leukemia) [µM] | TGI (HOP-92 NSCLC) [µM] | TGI (NCI-H226 lung) [µM] | TGI (NCI-H522 lung) [µM] | TGI (OVCAR-4 ovarian) [µM] | TGI (OVCAR-8 ovarian) [µM] | TGI (RPMI-8226 leukemia) [µM] | TGI (SNB-19 CNS) [µM] | TGI (SW-620 colon) [µM] | TGI (UACC-62 melanoma) [µM] | GI50 (HL-60(TB) leukemia) [µM] | GI50 (HOP-92 NSCLC) [µM] | GI50 (NCI-H226 lung) [µM] | GI50 (RPMI-8226 leukemia) [µM] | GI50 (SNB-19 CNS) [µM] | GI50 (SW-620 colon) [µM] | GI50 (UACC-62 melanoma) [µM] | GI50 (NCI-H522 lung) [µM] | GI50 (OVCAR-4 ovarian) [µM] | GI50 (OVCAR-8 ovarian) [µM]
CC1CC(c2ccc([N+](=O)[O-])cc2)=Nc2ccccc2S1=O (stereo unspecified) | 50.5 | > 100 | 80.4 | 25.9 | 62.3 | 32.9 | 31.9 | 38.5 | 29.3 | 38.8 |  |  |  |  |  |  |  |  |  | 
Cc1ccc(C(=O)N/N=C(\N=Nc2ccccc2)c2ccc(N(CCC#N)CCC#N)cc2C)cc1 | > 100 | > 100 | > 100 | 61.3 | > 100 | > 100 | > 100 | > 100 | > 100 | > 100 |  |  |  |  |  |  |  |  |  | 
C/C=C1/C(=O)O[C@]23C=C[C@@H]4C(C(=O)OC)=CO[C@H](O[C@@H]12)[C@@H]43 | 3.06 | 3.74 | 5.36 | 2.19 | 2.98 | 11.4 | 3.4 | 10.3 |  | 2.89 |  |  |  |  |  |  |  |  |  | 
COc1cc2c(cc1O)N=C[C@@H]1CCC(O)N1C2=O (mixture of isomers) | 11.1 | 2.46 | 2.08 | 0.636 | 18 | 10 | 2.39 | 147 | 6.96 | 1.5 |  |  |  |  |  |  |  |  |  | 
CC(CNc1nc(Nc2ccc(Cl)c(Cl)c2)nc(C(Cl)(Cl)Cl)n1)N(C)C (stereo unspecified) | 3.54 | 4.16 | 3.51 |  |  |  | 4.58 | 3.18 | 2.95 | 3.11 | 1.69 | 1.35 | 1.8 | 1.85 | 1.71 | 1.6 | 1.71 |  |  | 
O=C1NC(=O)C2(CCc3ccc(N(CCCl)CCCl)cc32)N1 (stereo unspecified) | 9.75 | 39.7 | 21.7 | 20.3 | 41.4 | 36.2 | 99.2 | > 84.7 | 61.9 | 15.8 |  |  |  |  |  |  |  |  |  | 
CCc1ncc(C(C)(O)c2ccccc2)n1Cc1ccccc1 (stereo unspecified) |  | > 100 | > 100 | > 100 | > 100 | > 100 | > 100 | > 100 | > 100 | 54.2 |  |  |  |  |  |  |  |  |  | 
COc1ccc2oc3c(ccc[n+]3C)c(=O)c2c1 | > 100 | > 100 | > 100 | > 100 | > 100 | > 100 |  | > 100 | > 100 | > 100 |  |  |  |  |  |  |  |  |  | 
CC(=O)Nc1nc(C)c(-c2cc3c(c(S(C)(=O)=O)c2)C(=O)N([C@@H](C)C2CC2)C3)s1 | > 100 | 64.1 | > 100 | > 100 | > 100 | > 100 | 52.9 | > 100 | > 100 | > 100 | 17.5 | 15.9 | 28.7 | 17.6 | 65.5 | 54.5 | 34.8 | 25.4 | 29.2 | 39.4
